What follows are compounds tested on replicon 1b-Con1 (assay: HCV subgenomic replicon luciferase reporter assay, replicon 1b-Con1). Details: Hepatitis C virus, 72 h; stable subgenomic replicon cell line, luciferase reporter, three days incubation; values given as ranges or bound.
Type: cell-based, Hepatitis C virus (HCV) genotype 1b-Con1

Row | Compound | IC50
1 | CC(C)c1ccc2c(Nc3cc(C#Cc4ccc(Sc5ccc(N(C)C)cc5)c(Nc5ncnc6nc(C(C)C)ccc56)c4)ccc3Sc3ccc(N(C)C)cc3)ncnc2n1 [Example 16] | 0.1 to 10 nM
2 | CC(C)c1ccc2c(Nc3cc(C#Cc4ccc(Oc5ccc(N)cc5)c(Nc5ncnc6nc(C(C)C)ccc56)c4)ccc3Oc3ccc(N)cc3)ncnc2n1 [Example 20] | 0.1 to 10 nM
3 | CC(C)c1ccc2c(Nc3cc(C#Cc4ccc(Sc5ccc(F)cc5)c(Nc5ncnc6nc(C(C)C)ccc56)c4)ccc3Sc3ccc(F)cc3)ncnc2n1 [Example 14] | 0.1 to 10 nM
4 | COc1ccc(CN(Cc2ccc(Sc3ccc(N)cc3)c(Nc3ncnc4nc(C(C)C)ccc34)c2)Cc2ccc(Sc3ccc(N)cc3)c(Nc3ncnc4nc(C(C)C)ccc34)c2)c(OC)c1 [Example 11] | 0.1 to 10 nM
5 | CC(C)c1ccc2c(Nc3cc(NC(=O)Nc4ccc(Sc5ccc(N)cc5)c(Nc5ncnc6nc(C(C)C)ccc56)c4)ccc3Sc3ccc(N)cc3)ncnc2n1 [Example 3, 1,3-bis(4-(4-aminophenylthio)-3-(7-isopropylpyrido[2,3-d]pyrimidin-4-ylamino)phenyl)urea] | 10 to 100 nM
6 | CC(C)c1ccc2c(Nc3cc(C#Cc4ccc(Oc5ccc(O)cc5)c(Nc5ncnc6nc(C(C)C)ccc56)c4)ccc3Oc3ccc(O)cc3)ncnc2n1 [Example 25] | 0.1 to 10 nM
7 | CC(C)c1ccc2c(Nc3cc(C#Cc4ccc(Sc5cccc(N)c5)c(Nc5ncnc6nc(C(C)C)ccc56)c4)ccc3Sc3cccc(N)c3)ncnc2n1 [Example 19] | 0.1 to 10 nM
8 | CC(C)c1ccc2c(Nc3cc(C(=O)NNC(=O)c4ccc(Sc5ccc(N)cc5)c(Nc5ncnc6nc(C(C)C)ccc56)c4)ccc3Sc3ccc(N)cc3)ncnc2n1 [Example 1, 4-(4-aminophenylthio)-N′-(4-(4-aminophenylthio)-3-(7-isopropylpyrido[2,3-d]pyrimidin-4-ylamino)benzoyl)-3-(7-isopropylpyrido[2,3-d]pyrimidin-4-ylamino)benzohydrazide] | 0.1 to 10 nM
9 | CC(C)c1ccc2c(Nc3cc(C(=O)NCCNC(=O)c4ccc(Sc5ccc(N)cc5)c(Nc5ncnc6nc(C(C)C)ccc56)c4)ccc3Sc3ccc(N)cc3)ncnc2n1 [Example 5, N,N′-(ethane-1,2-diyl)bis(4-(4-aminophenylthio)-3-(7-isopropylpyrido[2,3-d]pyrimidin-4-ylamino)benzamide)] | 0.1 to 10 nM
10 | CC(C)c1ccc2c(Nc3cc(C#Cc4ccc(Oc5ccc(CO)cc5)c(Nc5ncnc6nc(C(C)C)ccc56)c4)ccc3Oc3ccc(CO)cc3)ncnc2n1 [Example 23] | 0.1 to 10 nM
11 | Cc1ccc2c(Nc3cc(C#Cc4ccc(Sc5ccc(F)cc5)c(Nc5ccnc6nc(C)ccc56)c4)ccc3Sc3ccc(F)cc3)ccnc2n1 [Example 22] | 10 to 100 nM
12 | CC(C)c1ccc2c(Nc3cc(-c4ccc(-c5ccc(Sc6ccc(N)cc6)c(Nc6ncnc7nc(C(C)C)ccc67)c5)cc4)ccc3Sc3ccc(N)cc3)ncnc2n1 [Example 4, 4,4″-(4-amino-phenylsulfanyl)-N*3*,N*3″*-(7-isopropylpyrido[2,3-d]pyrimidin-4-yl)-[1,1′;4′,1″]terphenyl-3,3″-diamine] | 0.1 to 10 nM
13 | CC(C)c1ccc2c(Nc3cc(C#Cc4ccc(Sc5ccc(O)cc5)c(Nc5ncnc6nc(C(C)C)ccc56)c4)ccc3Sc3ccc(O)cc3)ncnc2n1 [Example 18] | 0.1 to 10 nM
14 | CC(C)c1ccc2c(Nc3cc(CN(Cc4ccc(Sc5ccc(N)cc5)c(Nc5ncnc6nc(C(C)C)ccc56)c4)c4ccccc4)ccc3Sc3ccc(N)cc3)ncnc2n1 [Example 9] | < 0.1 nM
15 | CC(C)c1ccc2c(Nc3cc(C#Cc4ccc(Sc5ccc(OCc6ccccc6)cc5)c(Nc5ncnc6nc(C(C)C)ccc56)c4)ccc3Sc3ccc(OCc4ccccc4)cc3)ncnc2n1 [Example 26] | 0.1 to 10 nM
16 | CC(C)c1ccc2c(Nc3cc(NC(=O)c4ccc(Sc5ccc(N)cc5)c(Nc5ncnc6nc(C(C)C)ccc56)c4)ccc3Sc3ccc(N)cc3)ncnc2n1 [Example 2, 4-(4-aminophenylthio)-N-(4-(4-aminophenylthio)-3-(7-isopropylpyrido[2,3-d]pyrimidin-4-ylamino)phenyl)-3-(7-isopropylpyrido[2,3-d]pyrimidin-4-ylamino)benzamide] | 0.1 to 10 nM
17 | COc1ccc(Sc2ccc(CN(Cc3ccc(Sc4ccc(OC)cc4)c(Nc4ccnc5nc(C)ccc45)c3)C(C)C)cc2Nc2ccnc3nc(C)ccc23)cc1 [Example 28] | 10 to 100 nM
18 | CC(C)c1ccc2c(Nc3cc(C#Cc4ccc(Sc5ccc(N)cc5)c(Nc5ncnc6nc(C(C)C)ccc56)c4)ccc3Sc3ccc(N)cc3)ncnc2n1 [Example 8, N,N′-(5,5′-(ethyne-1,2-diyl)bis(2-(4-aminophenylthio)-5,1-phenylene))bis(7-isopropylpyrido[2,3-d]pyrimidin-4-amine)] | < 0.1 nM
19 | CC(C)c1ccc2c(Nc3cc(C#Cc4ccc(Sc5ccccc5)c(Nc5ncnc6nc(C(C)C)ccc56)c4)ccc3Sc3ccccc3)ncnc2n1 [Example 15] | 0.1 to 10 nM
20 | CC(C)c1ccc2c(Nc3cc(CN(Cc4ccc(Sc5ccc(N)cc5)c(Nc5ncnc6nc(C(C)C)ccc56)c4)C(C)C)ccc3Sc3ccc(N)cc3)ncnc2n1 [Example 24] | 0.1 to 10 nM
21 | Cc1ccc2c(Nc3cc(C#Cc4ccc(Sc5ccc(N)cc5)c(Nc5ncnc6nc(C)ccc56)c4)ccc3Sc3ccc(N)cc3)ncnc2n1 [Example 21] | 0.1 to 10 nM
22 | CC(C)c1ccc2c(Nc3cc(C#Cc4ccc(Oc5ccccc5)c(Nc5ncnc6nc(C(C)C)ccc56)c4)ccc3Oc3ccccc3)ncnc2n1 [Example 17] | 0.1 to 10 nM
23 | CC(C)c1ccc2c(Nc3cc(C(=O)N4CCN(C(=O)c5ccc(Sc6ccc(N)cc6)c(Nc6ncnc7nc(C(C)C)ccc67)c5)CC4)ccc3Sc3ccc(N)cc3)ncnc2n1 [Example 6, piperazine-1,4-diylbis((4-(4-aminophenylthio)-3-(7-isopropylpyrido[2,3-d]pyrimidin-4-ylamino)phenyl)methanone)] | 0.1 to 10 nM
24 | CC(C)c1ccc2c(Nc3cc(-c4ccc(-c5ccc(Sc6ccc(N)cc6)c(Nc6ncnc7nc(C(C)C)ccc67)c5)nc4)ccc3Sc3ccc(N)cc3)ncnc2n1 [Example 12] | 0.1 to 10 nM
25 | Cc1ccc2c(Nc3cc(-c4ccc(-c5ccc(Sc6ccc(N)cc6)c(Nc6ncnc7nc(C)ccc67)c5)cc4)ccc3Sc3ccc(N)cc3)ncnc2n1 [Example 13] | 0.1 to 10 nM

Same assay, conditions: Hepatitis C virus; same test; cell prints lower limit in nM and upper limit in μM

Row | Compound | IC50
26 | CC(C)c1ccc2c(Nc3cccc(C(=O)Nc4ccc(Sc5ccc(N)cc5)c(Nc5ncnc6nc(C(C)C)ccc56)c4)c3)ncnc2n1 [Example 7, N-(4-(4-aminophenylthio)-3-(7-isopropylpyrido[2,3-d]pyrimidin-4-ylamino)phenyl)-3-(7-isopropylpyrido[2,3-d]pyrimidin-4-ylamino)benzamide] | 100 to 10000 nM
27 | CC(C)c1ccc2c(Nc3cc(C(=O)NCCNC(=O)c4ccc(Sc5ccccc5)c(Nc5ncnc6nc(C(C)C)ccc56)c4)ccc3Sc3ccccc3)ncnc2n1 [Example 10] | 100 to 10000 nM

From patent US8546405B2, “Anti-viral compounds” (Abbott Laboratories, priority 2008, dated 2013)
